Source: PubChem BioAssay (NCI)
Where “and” joins values, the source holds several entries; their conditions need not be identical. Identical values can stand only once.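 Following 48 hours of exposure in 96-well plates, responses at five concentrations were used to interpolate endpoints linearly. GI50: concentration for 50% inhibition of growth. TGI is the concentration that stops growth completely.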

How the values were obtained:
Test in all cases: inhibition of tumour cell growth, NCI panel, 48 h
MALME-3M melanoma = test system: MALME-3M melanoma
MDA-MB-231 breast = test system: MDA-MB-231 breast
SF-295 CNS = test system: SF-295 CNS
NCI-H226 lung = test system: NCI-H226 lung
HOP-62 NSCLC = test system: HOP-62 NSCLC
786-0 renal = test system: 786-0 renal
U251 CNS = test system: U251 CNS
SNB-19 CNS = test system: SNB-19 CNS
NCI-H460 lung = test system: NCI-H460 lung
RPMI-8226 leukemia = test system: RPMI-8226 leukemia

SMILES | GI50 (MALME-3M melanoma) [µM] | TGI (MALME-3M melanoma) | GI50 (MDA-MB-231 breast) [µM] | TGI (MDA-MB-231 breast) | GI50 (SF-295 CNS) | TGI (SF-295 CNS) | GI50 (NCI-H226 lung) | TGI (NCI-H226 lung) | GI50 (HOP-62 NSCLC) [µM] | TGI (HOP-62 NSCLC) | GI50 (786-0 renal) [µM] | TGI (786-0 renal) | GI50 (U251 CNS) | TGI (U251 CNS) [µM] | GI50 (SNB-19 CNS) [µM] | TGI (SNB-19 CNS) | GI50 (NCI-H460 lung) [µM] | TGI (NCI-H460 lung) | GI50 (RPMI-8226 leukemia) [µM] | TGI (RPMI-8226 leukemia)
COC(=O)c1ccc2c(c1)[n+](=O)c(C(C)=O)c(C(F)(F)F)n2[O-] | 1.96 | 3.79 µM | 1.98 | 3.88 µM | 1.33 µM | 2.78 µM | 1.95 µM | 3.65 µM | 1.94 | 3.69 µM | 1.91 | 3.37 µM | 1.8 µM | 3.25 | 3.12 | 9.12 µM | 1.81 | 3.45 µM | 2.23 | 6.34 µM
COc1ccc(NC(=O)CC(=O)n2nc(-c3ccccc3)c(N=Nc3ccc(C)cc3)c2-c2ccccc2)cc1 |  | 70.3 µM |  | > 59.6 µM |  | 52.2 µM |  | 58.3 µM |  | 38.4 µM |  | 45.6 µM |  | 47.5 |  | 49.4 µM |  | 66.3 µM |  | > 100 µM
O=C(NCCc1ccccc1)C(c1csc2ccccc12)N(C(=O)CCl)c1ccc(-c2cnco2)cc1 (stereo not given) | 0.146 | 0.308 µM | 0.226 | 1.36 µM | 0.156 µM | 0.302 µM | 1.07 µM | 3.43 µM | 0.347 | 1.07 µM | 0.0197 | 0.038 µM | 0.163 µM | 0.644 | 1.7 | 3.16 µM | 0.631 |  | 0.171 | 0.474 µM
COc1cccc(-n2cnc3c(N/N=C/c4ccncc4)ncnc32)c1 | 10.2 | > 25 µM | > 20.3 | > 25 µM | > 25 µM | > 25 µM | > 23.9 µM | > 25 µM | > 25 | > 25 µM | 19.5 | > 25 µM | > 25 µM | > 25 | > 25 | > 25 µM | 13.6 | > 25 µM | > 25 | > 25 µM
NS(=O)(=O)OC[C@H]1O[C@@H](n2cnc3c(N[C@H]4CCc5ccccc54)ncnc32)[C@H](O)[C@@H]1O | 0.195 | 0.447 µM | 0.47 | 2.92 µM | 0.387 µM | 1.94 µM | 0.0285 µM | 0.0863 µM | 0.0569 | 0.485 µM | 0.0799 | 0.373 µM | 0.0353 µM | 0.121 | 0.0902 | 2.05 µM | 0.408 | 2.11 µM | 3.36 | 28.1 µM
COc1cc(C2C3=C(COC3=O)N(CCO)c3cc4c(cc32)OCCO4)cc(OC)c1O (stereo not given) | 1.23 | > 50 µM | 4.41 | > 50 µM | 1.22 µM | 4.12 µM | > 19.5 µM | > 50 µM | 2.72 | > 50 µM | 7.03 | > 50 µM | 2 µM | > 50 | 2.11 | > 50 µM | 1.75 | > 28.5 µM | 2.18 | > 50 µM
O=C1/C(=C/c2ccc(F)cc2)CN(Cc2cn(CCNc3ccnc4cc(Cl)ccc34)nn2)C/C1=C\c1ccc(F)cc1 | 1.98 | 3.76 µM | 1.76 | 3.41 µM | 1.94 µM | 3.65 µM | 1.91 µM | 4.24 µM | 2.07 | 3.76 µM | 1.66 | 3.04 µM | 1.33 µM | 2.68 | 1.57 | 2.92 µM | 1.18 | 2.57 µM | 0.299 | 0.896 µM
CC(C)=CCNc1ncnc2c1ncn2C1OC(COP(=O)(O)O)C(O)C1O (stereo not given) | 73.8 | > 100 µM | 1.85 | 5.48 µM | 5.8 µM | 34 µM | 4.7 µM | 33.9 µM | 23.5 | > 100 µM | 5.82 | > 79.6 µM | > 100 µM | > 100 | 26.3 | > 100 µM | 7.24 | > 100 µM | 42.8 | > 100 µM
O=C(O)/C=C/C(=O)Nc1cccc2c1-c1ccccc1C2=O |  | > 100 µM |  | 81.3 µM |  | > 33.8 µM |  | > 100 µM |  | > 100 µM |  | > 100 µM |  | > 57.5 |  | > 100 µM |  | > 35.5 µM |  | 62.6 µM
CN1CCN(c2nc(NCCNc3ccnc4cc(Cl)ccc34)c3ccccc3n2)CC1 | 2 | 3.76 µM | 1.37 | 3.14 µM | 1.79 µM | 3.45 µM | 10.6 µM | 28.7 µM | 2.73 | 14.2 µM | 2.33 | 10 µM | 2.3 µM | 10.1 | 3.34 | 15.2 µM | 1.7 | 6.49 µM | 1.71 | 4.26 µM
O=c1cc(N2CCOCC2)oc2c(-c3ccccc3)cccc12 | 4.46 | > 41.4 µM and 5.6 µM | 5.85 | 97.3 µM and 19.6 µM | 2.61 µM | 27.8 µM and 44.7 µM |  | 50 µM and 50.6 µM | 5.41 | > 100 µM | 3.13 | > 37.9 µM and 46.7 µM | 11.1 µM | > 100 |  | > 96.2 µM and 78.6 µM | 6.13 | > 100 µM | 5.1 | > 100 µM and 18.3 µM
Nc1ncnc2c1ncn2C1OC(CO)C(O)C1O (stereo not given) | 51.3 | > 422 µM | 5.91 | > 100 µM and 24.6 µM | > 100 µM and 215 µM and 32.6 µM | > 450 µM | > 100 µM and 213 µM and 25.5 µM | > 373 µM | 11.7 | > 100 µM and 184 µM and 47.9 µM | 9.22 | > 100 µM | > 100 µM and 273 µM and 30.6 µM | > 450 |  | > 450 µM | 4.23 | 181 µM and 32.2 µM |  | > 100 µM and > 450 µM and 60.8 µM
O=C(O)CSc1ccn(Cc2ccccc2)c1 |  | > 100 µM |  | > 100 µM |  | > 100 µM |  | > 100 µM |  | > 100 µM |  | > 100 µM |  | > 100 |  | > 100 µM |  | > 100 µM |  | > 100 µM
COc1ccc(CNCCN2C(=O)c3ccc4c5c(ccc(c35)C2=O)C(=O)N(CCNCc2ccc(OC)cc2)C4=O)cc1 | 0.123 | 0.269 µM | 0.294 | 1.13 µM | 0.418 µM | 1.83 µM | 0.637 µM | 2.28 µM | 0.579 | 1.99 µM | 1.17 | 2.49 µM | 0.199 µM | 0.48 | 0.23 | 0.717 µM | 0.25 | 0.943 µM | 0.487 | 3.14 µM
CCCCCCCC(=O)SCC/C=C/[C@@H]1CC(=O)NCc2cccc(n2)CN(Cc2ccc(Cl)cc2)CC(=O)N[C@@H](C(C)C)C(=O)O1 | 3.12 | > 100 µM | 11.7 | 68.8 µM | 4.45 µM | 20.3 µM | 22 µM | > 100 µM | 5.4 | 44.4 µM | 22 | > 100 µM | 12.6 µM | 35.8 | 22.6 | > 100 µM | 5.45 | > 100 µM | 46.4 | > 100 µM
O=C1CCc2cc([N+](=O)[O-])ccc2O1 |  | > 100 µM |  | > 100 µM |  | > 100 µM |  | > 100 µM |  | > 100 µM |  | > 100 µM |  | > 100 |  | > 100 µM |  | > 100 µM |  | > 100 µM
